Source: patent US20110039721A1, “METHOD FOR PREDICTION ABOUT CARCINOGENICITY OF SUBSTANCE IN RODENT” (Chemicals Evaluation and Research Institute, priority 2007, published 2011)
Like-named read-outs stand apart in the source and are kept apart here.

Key:
[1] = test system: mRNA expressed from the genes (A) to (D) in rat liver; experiment: Behavior of genes (mRNA expression level, oligo-DNA microarray) in rat liver after 28-day oral administration; type: in vivo
Summary of the method: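 Liver mRNA measured by oligo-DNA microarray after 28 days of once-daily oral gavage in 5-week-old male F344 rats (n=4 per group), with vehicle controls given equal solvent volume. Significance threshold: 1.5-fold up or down versus control, with changes opposite in direction to other carcinogens counted as not significant.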

[2] = test system: liver; details: cited from earlier work
[3] = test system: rodent; details: cited from earlier work
[4] = cited from earlier work

CC(=O)Nc1cccc2c1-c1ccccc1C2 [TS061, 4-Acetylaminofluorene]
Behavior of gene caused by administration of chemical substance ([1]; Gene No. 154, Rn.185941, group (C)): − | Behavior of gene caused by administration of chemical substance ([1]; Gene No. 533, Rn.106184, group (C)): − | Behavior of gene caused by administration of chemical substance ([1]; Gene No. 725, Rn.108075, group (C)): − | Behavior of gene caused by administration of chemical substance ([1]; Gene No. 813, Rn.201760, group (C)): − | Behavior of gene caused by administration of chemical substance ([1]; Gene No. 893, Rn.164817, group (C)): − | Behavior of gene caused by administration of chemical substance ([1]; Gene No. 1119, Rn.9757, group (C)): − | Behavior of gene caused by administration of chemical substance ([1]; Gene No. 1131, Rn.144946, group (C)): − | Behavior of gene caused by administration of chemical substance ([1]; Gene No. 1163, Rn.11766, group (C)): + | Behavior of gene caused by administration of chemical substance ([1]; Gene No. 1334, Rn.120914, group (C)): − | Behavior of gene caused by administration of chemical substance ([1]; Gene No. 1494, Rn.1430, group (B)): − | Behavior of gene caused by administration of chemical substance ([1]; Gene No. 1562, Rn.14744, group (C)): − | Behavior of gene caused by administration of chemical substance ([1]; Gene No. 1741, Rn.1647, group (C)): − | Behavior of gene caused by administration of chemical substance ([1]; Gene No. 1993, Rn.18728, group (C)): − | Behavior of gene caused by administration of chemical substance ([1]; Gene No. 2026, Rn.167075, group (A)): + | Behavior of gene caused by administration of chemical substance ([1]; Gene No. 2045, Rn.19329, group (B)): − | Behavior of gene caused by administration of chemical substance ([1]; Gene No. 2203, Rn.21240, group (B)): − | Behavior of gene caused by administration of chemical substance ([1]; Gene No. 2494, Rn.23969, group (C)): − | Behavior of gene caused by administration of chemical substance ([1]; Gene No. 2546, Rn.24561, group (C)): − | Behavior of gene caused by administration of chemical substance ([1]; Gene No. 3776, Rn.43232, group (C)): − | Behavior of gene caused by administration of chemical substance ([1]; Gene No. 3929, Rn.4620, group (C)): − | Behavior of gene caused by administration of chemical substance ([1]; Gene No. 4095, Rn.119024, group (C)): − | Behavior of gene caused by administration of chemical substance ([1]; Gene No. 4218, Rn.167075, group (A)): − | Behavior of gene caused by administration of chemical substance ([1]; Gene No. 4846, Rn.144554, group (A)): + | Behavior of gene caused by administration of chemical substance ([1]; Gene No. 4973, Rn.118529, group (C)): − | Behavior of gene caused by administration of chemical substance ([1]; Gene No. 5600, Rn.9836, group (A)): − | Behavior of gene caused by administration of chemical substance ([1]; Gene No. 5634, Rn.9862, group (C)): − | Behavior of gene caused by administration of chemical substance ([1]; Gene No. 5726, Rn.9939, group (D)): − | Behavior of gene caused by administration of chemical substance ([1]; Gene No. 5878, Rn.143213, group (C)): − | Behavior of gene caused by administration of chemical substance ([1]; Gene No. 6026, Rn.167685, group (C)): − | Behavior of gene caused by administration of chemical substance ([1]; Gene No. 6182, Rn.5834, group (A)): + | Behavior of gene caused by administration of chemical substance ([1]; Gene No. 6303, Rn.123063, group (C)): − | Behavior of gene caused by administration of chemical substance ([1]; Gene No. 6620, Rn.120914, group (C)): − | Behavior of gene caused by administration of chemical substance ([1]; Gene No. 6742, Rn.9779, group (C)): − | Liver carcinogenicity ([2]; classification Cr+/Cr−): Cr− | Carcinogenicity ([3]; classification C+/C−): C− | Mutagenicity by Ames test ([4]; classification M+/M−): M+

Cc1c(C)c2c(c(C)c1O)CC[C@@](C)(CCC[C@H](C)CCC[C@H](C)CCCC(C)C)O2 [TS062, α-Tocopherol (Vitamin E)]
Behavior of gene caused by administration of chemical substance, Gene No. 154 ([1]; rat, in vivo): − | Behavior of gene caused by administration of chemical substance, Gene No. 533 ([1]; rat, in vivo): − | Behavior of gene caused by administration of chemical substance, Gene No. 725 ([1]; rat, in vivo): − | Behavior of gene caused by administration of chemical substance, Gene No. 813 ([1]; rat, in vivo): − | Behavior of gene caused by administration of chemical substance, Gene No. 893 ([1]; rat, in vivo): − | Behavior of gene caused by administration of chemical substance, Gene No. 1119 ([1]; rat, in vivo): − | Behavior of gene caused by administration of chemical substance, Gene No. 1131 ([1]; rat, in vivo): − | Behavior of gene caused by administration of chemical substance, Gene No. 1163 ([1]; rat, in vivo): + | Behavior of gene caused by administration of chemical substance, Gene No. 1334 ([1]; rat, in vivo): − | Behavior of gene caused by administration of chemical substance, Gene No. 1494 ([1]; rat, in vivo): − | Behavior of gene caused by administration of chemical substance, Gene No. 1562 ([1]; rat, in vivo): − | Behavior of gene caused by administration of chemical substance, Gene No. 1741 ([1]; rat, in vivo): − | Behavior of gene caused by administration of chemical substance, Gene No. 1993 ([1]; rat, in vivo): − | Behavior of gene caused by administration of chemical substance, Gene No. 2026 ([1]; rat, in vivo): − | Behavior of gene caused by administration of chemical substance, Gene No. 2045 ([1]; rat, in vivo): − | Behavior of gene caused by administration of chemical substance, Gene No. 2203 ([1]; rat, in vivo): − | Behavior of gene caused by administration of chemical substance, Gene No. 2494 ([1]; rat, in vivo): − | Behavior of gene caused by administration of chemical substance, Gene No. 2546 ([1]; rat, in vivo): − | Behavior of gene caused by administration of chemical substance, Gene No. 3776 ([1]; rat, in vivo): − | Behavior of gene caused by administration of chemical substance, Gene No. 3929 ([1]; rat, in vivo): − | Behavior of gene caused by administration of chemical substance, Gene No. 4095 ([1]; rat, in vivo): − | Behavior of gene caused by administration of chemical substance, Gene No. 4218 ([1]; rat, in vivo): − | Behavior of gene caused by administration of chemical substance, Gene No. 4846 ([1]; rat, in vivo): − | Behavior of gene caused by administration of chemical substance, Gene No. 4973 ([1]; rat, in vivo): − | Behavior of gene caused by administration of chemical substance, Gene No. 5600 ([1]; rat, in vivo): − | Behavior of gene caused by administration of chemical substance, Gene No. 5634 ([1]; rat, in vivo): − | Behavior of gene caused by administration of chemical substance, Gene No. 5726 ([1]; rat, in vivo): − | Behavior of gene caused by administration of chemical substance, Gene No. 5878 ([1]; rat, in vivo): − | Behavior of gene caused by administration of chemical substance, Gene No. 6026 ([1]; rat, in vivo): − | Behavior of gene caused by administration of chemical substance, Gene No. 6182 ([1]; rat, in vivo): − | Behavior of gene caused by administration of chemical substance, Gene No. 6303 ([1]; rat, in vivo): − | Behavior of gene caused by administration of chemical substance, Gene No. 6620 ([1]; rat, in vivo): − | Behavior of gene caused by administration of chemical substance, Gene No. 6742 ([1]; rat, in vivo): + | Liver carcinogenicity ([2]; in vivo): Cr− | Carcinogenicity ([3]; in vivo): C− | Mutagenicity by Ames test ([4]; classification of the substance (M+/M−)): M−
